Results reported in EP0312076A1, “Use of oxoquinazoline derivatives in the treatment of hyperlipidemia” (BOEHRINGER INGELHEIM KG, priority 1987, dated 1989).

What was measured:
Harnsäurespiegel = test: Rat test: lowering of uric acid level; type: in vivo; details: 100 mg/kg pro Tag (in zwei gleichen Gaben), Ratten
Protocol: (§1) Im Versuch an Ratten wurde mit 100 mg/kg pro Tag (in zwei gleichen Gaben) eine deutliche Senkung des Triglyceridspiegels erreicht, z.B. 34% Senkung gegenüber der Kontrolle bei normolipämischen Ratten. Vorteilhafterweise wurde gleichzeitig der Harnsäurespiegel um 38 % gesenkt. Es läßt sich daher mit einer Substanz eine Therapie der Hyperlipidämie und der Hyperurikämie durchführen. Dadurch können unerwünschte Wechselwirkungen, wie sie bei der sonst nötigen Behandlung mit je einem Wirkstoff gegen die Hyperurikämie und gegen die Hyperlipidämie auftreten können, von vornherein vermieden werden.

Triglyceridspiegel = test: Rat test: lowering of triglyceride level; type: in vivo; details: 100 mg/kg pro Tag (in zwei gleichen Gaben), normolipämische Ratten
Protocol: as §1

Gesamtcholesterinspiegel = test: Lowering of total cholesterol level in humans; type: in vivo; details: 600 mg pro Tag, beim Menschen
Protocol: Mit 600 mg pro Tag ließ sich z.B. bei Verwendung der 11-Oxo-11-H-pyrido[2,1-b]chinazolin-2-carbonsäure beim Menschen der Gesamtcholesterinspiegel um etwa 25 % senken.

[1] = parameters: species or system Patienten; details: in vivo
Text: Gegenüber den bekannten Mitteln zur Behandlung der Hyperlipidämie haben die erfindungsgemäß verwendbaren Verbindungen, etwa die 11-Oxo-11-H pyrido-[2,1-b]-chinazolin-2-carbonsäure und ihre Salze, den Vorzug besserer Verträglichkeit.

Gesamtcholesterin = test: Study in 8 healthy volunteers on a defined purine-rich diet: total cholesterol; type: in vivo, gesunde Probanden; details: nach 8 Tagen (nach Therapieende), 600 mg/Tag from day 4, n = 8, before therapy (4 days) 196 ± 70 mg/dl, before diet 201 ± 48 mg/dl
Protocol: In einer anderen Studie erhielten 8 gesunde Probanden eine definierte purinreiche Diät über die Prüfdauer von 8 Tagen. Nach 4 Tagen wurde mit der Verabreichung von 11-Oxo-11-H-pyrido[2,1-b]-chinazolin-2-carbonsäure (600 mg/Tag) begonnen.
Gesamtcholesterin (x); n = 8
Das Ergebnis bedeutet eine l8prozentige Senkung des Gesamtcholesterins.

For O=C(O)c1ccc2nc3ccccn3c(=O)c2c1 [11-Oxo-11-H-pyrido[2,1-b]chinazolin-2-carbonsäure], the “Senkung des Harnsäurespiegels” value (Harnsäurespiegel) was 38%, the “Senkung des Triglyceridspiegels gegenüber der Kontrolle” value (Triglyceridspiegel) was 34% and the “Senkung des Gesamtcholesterinspiegels” value (Gesamtcholesterinspiegel) was roughly 25%. The “präparatespezifische Nebenwirkungen” value [1] was “keinerlei präparatespezifischen Nebenwirkungen” and the “Gesamtcholesterin (x)” value (Gesamtcholesterin) was 160 ± 48 mg/dL.
